The target of one assay is hOX1R (Homo sapiens, UniProt O43613). The assay can be described thus: hOX1R FLIPR Ca2+ flux assay. The format is cell-based. As to conditions: CHO cells expressing the receptor; agonist 70 pM Ala-6,12 human orexin-A.
The target in a further assay is human orexin-2 receptor (Homo sapiens (Human), UniProt O43614). The assay is described as follows: hOX2R FLIPR Ca2+ flux assay. The format is cell-based. Conditions: CHO cells expressing the receptor; agonist 70 pM Ala-6,12 human orexin-A. Here is the method:
In a typical experiment the OX1 and OX2 receptor antagonistic activity of the compounds of the present invention was determined in accordance with the following experimental method. For intracellular calcium measurements, Chinese hamster ovary (CHO) cells expressing the rat orexin-1 receptor or the human orexin-2 receptor, are grown in Iscove's modified DMEM containing 2 mM L-glutamine, […], 1% hypoxanthine-thymidine supplement, 100 U/ml penicillin, 100 μg/ml streptomycin and 10% heat-inactivated fetal calf serum (FCS). The cells are seeded at 20,000 cells/well into Becton-Dickinson black 384-well clear bottom sterile plates coated with poly-D-lysine. All reagents were from GIBCO-Invitrogen Corp. The seeded plates are incubated overnight at 37° C. and 5% CO2. Ala-6,12 human orexin-A as the agonist is prepared as a 1 mM stock solution in 1% bovine serum albumin (BSA) and diluted in assay buffer (HBSS containing 20 mM HEPES, 0.1% BSA and 2.5 mM probenecid, pH7.4) for use in the assay at a final concentration of 70 pM. Test compounds are prepared as 10 mM stock solution in DMSO, then diluted in 384-well plates, first in DMSO, then assay buffer. On the day of the assay, cells are washed 3 times with 100 μl assay buffer and then incubated for 60 min (37° C., 5% CO2) in 60 μl assay buffer containing 1 μM Fluo-4AM ester, 0.02% pluronic acid, and 1% BSA. The dye loading solution is then aspirated and cells are washed 3 times with 100 μl assay buffer. 30 μl of that same buffer is left in each well. Within the Fluorescent Imaging Plate Reader (FLIPR, Molecular Devices), test compounds are added to the plate in a volume of 25 μl, incubated for 5 min and finally 25 μl of agonist is added. Fluorescence is measured for each well at 1 second intervals for 5 minutes and the height of each fluorescence peak is compared to the height of the fluorescence peak induced by 70 pM Ala-6,12 orexin-A with buffer in place of antagonist. […] Alternatively, compound potency can be assessed by a radioligand binding assay (described in Bergman et. al. Bioorg. Med. Chem. Lett. 2008, 18, 1425-1430) in which the inhibition constant (Ki) is determined in membranes prepared from CHO cells expressing either the OX1 or OX2 receptor. The intrinsic orexin receptor antagonist activity of a compound which may be used in the present invention may be determined by these assays.

human orexin-2 receptor, sequence (O43614 whole entry): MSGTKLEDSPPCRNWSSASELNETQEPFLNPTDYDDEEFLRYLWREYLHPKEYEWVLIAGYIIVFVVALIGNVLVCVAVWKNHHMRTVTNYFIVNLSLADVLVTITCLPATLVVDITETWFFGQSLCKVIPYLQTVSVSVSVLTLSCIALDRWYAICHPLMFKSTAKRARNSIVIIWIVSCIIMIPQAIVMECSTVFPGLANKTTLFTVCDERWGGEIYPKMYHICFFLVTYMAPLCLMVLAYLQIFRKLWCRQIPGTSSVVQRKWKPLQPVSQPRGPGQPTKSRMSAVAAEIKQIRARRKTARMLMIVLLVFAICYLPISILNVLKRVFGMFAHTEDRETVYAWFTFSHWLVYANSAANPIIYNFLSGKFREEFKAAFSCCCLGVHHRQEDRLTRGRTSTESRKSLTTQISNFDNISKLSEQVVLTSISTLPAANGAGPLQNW

On to `COC(=O)c1nc(N2CC[C@H]3CCN(C(=O)c4ccccc4-n4nccn4)C[C@H]32)sc1C` (stereo in doubt) [Example B12, methyl 2-((3aR, 7aS)-6-(2-(2H-1,2,3-triazol-2-yl)benzoyl)octahydro-1H-pyrrolo[2,3-c]pyridin-1-yl)-5-methylthiazole-4-carboxylate], for which the results for the IC50 at hOX1R and at human orexin-2 receptor were 10 µM and 1340 nM, respectively.
Regarding `N#Cc1ccnc(N2CC[C@H]3CCN(C(=O)c4ccccc4-n4ncnn4)C[C@H]32)c1` (stereo in doubt) [Example D2, 2-((3aS, 7aS)-6-(2-(2H-tetrazol-2-yl)benzoyl)octahydro-1H-pyrrolo[2,3-c]pyridin-1-yl)isonicotinonitrile], the IC50 (as a rule, the midpoint of a concentration-inhibition curve) on hOX1R turned out to be 10 µM; on human orexin-2 receptor it was 110 nM.
The like results for `N#Cc1ccnc(N2CC[C@H]3CCN(C(=O)c4ccccc4OC(F)(F)F)C[C@H]32)c1` (stereo in doubt) [Example D3, 2-((3aS, 7aS)-6-(2-(trifluoromethoxy)benzoyl)octahydro-1H-pyrrolo[2,3-c]pyridin-1-yl)isonicotinonitrile] were, in that order, 10 µM and 79.1 nM.
Consider `N#Cc1ccnc(N2CC[C@H]3CCN(C(=O)c4nccnc4-c4ccccn4)C[C@H]32)c1` (stereo in doubt) [Example D4, 2-((3aS, 7aS)-6-(3-(pyridin-2-yl)pyrazine-2-carbonyl)octahydro-1H-pyrrolo[2,3-c]pyridin-1-yl)isonicotinonitrile], for which the IC50 was at least 10 µM on hOX1R and 328 nM on human orexin-2 receptor.
The like results for `N#Cc1ccnc(N2CC[C@H]3CCN(C(=O)c4cccnc4-n4cccn4)C[C@H]32)c1` (stereo in doubt) [Example D5, 2-((3aS, 7aS)-6-(2-(1H-pyrazol-1-yl)nicotinoyl)octahydro-1H-pyrrolo[2,3-c]pyridin-1-yl)isonicotinonitrile] were, in that order, 10 µM and 37 nM.
The like results for `N#Cc1ccnc(N2CC[C@H]3CCN(C(=O)c4nccnc4-n4cccn4)C[C@H]32)c1` (stereo in doubt) [Example D6, 2-((3aS, 7aS)-6-(3-(1H-pyrazol-1-yl)pyrazine-2-carbonyl)octahydro-1H-pyrrolo[2,3-c]pyridin-1-yl)isonicotinonitrile] were, in that order, 10 µM and 117 nM.
In the same order, the values of `N#Cc1ccnc(N2CC[C@H]3CCN(C(=O)c4ccccc4-n4nccn4)C[C@H]32)c1` [Example A1, 2-((3aS,7aS)-6-(2-(2H-1,2,3-triazol-2-yl)benzoyl)octahydro-1H-pyrrolo[2,3-c]pyridin-1-yl)isonicotinonitrile] are 10 µM and 40.5 nM.
On to `Cc1cc(C)nc(N2CC[C@@H]3CCN(C(=O)c4ccccc4-n4nccn4)C[C@@H]32)n1` [Example A2, (2-(2H-1,2,3-triazol-2-yl)phenyl)((3aR, 7aR)-1-(4,6-dimethylpyrimidin-2-yl)hyexahydro-1H-pyrrolo[2,3-c]pyridin-6(2H)-yl)methanone], for which the half-inhibitory concentration (IC50) came to 10 µM on hOX1R and 163 nM on human orexin-2 receptor.
In the same order, the values of `N#Cc1ccnc(N2CC[C@@H]3CCN(C(=O)c4ccccc4-n4nccn4)C[C@@H]32)n1` [Example A3, 2-((3aR, 7aR)-6-(2-(2H-1,2,3-triazol-2-yl)benzoyl)octahydro-1H-pyrrolo[2,3-c]pyridin-1-yl)pyrimidine-4-carbonitrile] are 10 µM and 943 nM.
The like results for `Cc1cc(C#N)nc(N2CC[C@@H]3CCN(C(=O)c4ccccc4-n4nccn4)C[C@@H]32)n1` [Example A4, 2-((3aR, 7aR)-6-(2-(2H-1,2,3-triazol-2-yl)benzoyl)octahydro-1H-pyrrolo[2,3-c]pyridin-1-yl)-6-methylpyrimidine-4-carbonitrile] were, in that order, 10 µM and 10000 nM.
The like results for `COc1cc(OC)nc(N2CC[C@@H]3CCN(C(=O)c4ccccc4-n4nccn4)C[C@@H]32)n1` [Example A5, (2-(2H-1,2,3-triazol-2-yl)phenyl)((3aR, 7aR)-1-(4,6-dimethoxypyrimidin-2-yl)hexahydro-1H-pyrrolo[2,3-c]pyridin-6(2H)-yl)methanone] were, in that order, 10 µM and 2100 nM.
In the case of `O=C(c1ccccc1-n1nccn1)N1CC[C@H]2CCN(c3ncccn3)[C@H]2C1` [Example A6], the concentration for half-maximal inhibition (IC50) amounted to 10 µM at hOX1R and 6080 nM on human orexin-2 receptor.
The like results for `COC(=O)c1ccnc(N2CC[C@@H]3CCN(C(=O)c4ccccc4-n4nccn4)C[C@@H]32)c1` [Example A8] were, in that order, at least 10 µM and at least 10000 nM.
Consider `COc1cc(N2CC[C@@H]3CCN(C(=O)c4ccccc4-n4nccn4)C[C@@H]32)ncc1C#N` [Example A9], for which the IC50 at hOX1R was at least 10 µM; on human orexin-2 receptor, 2640 nM.
As for `O=C(c1ccccc1-n1nccn1)N1CC[C@H]2CCN(c3ccc(-n4ccnc4)nn3)[C@H]2C1` [Example A10, (3aR, 7aR)-(1-(6-(1H-imidazol-1-yl)pyridazin-3-yl)hexahydro-1H-pyrrolo[2,3-c]pyridin-6(2H)-yl)(2-(2H-1,2,3-triazol-2-yl)phenyl)methanone], the values for the half-inhibitory concentration (IC50) at hOX1R and at human orexin-2 receptor were 10 µM and 10000 nM, respectively.
The like results for `Cc1ccc(C)n1-c1ccc(N2CC[C@@H]3CCN(C(=O)c4ccccc4-n4nccn4)C[C@@H]32)nn1` [Example A11, (2-(2H-1,2,3-triazol-2-yl)phenyl)((3aR, 7aR)-1-(6-(2,5-dimethyl-1H-pyrrol-1-yl)pyridazin-3-yl)hexahydro-1H-pyrrolo[2,3-c]pyridin-6(2H)-yl)methanone] were, in that order, 10 µM and 10000 nM.
The like results for `COC(=O)c1ccc(N2CC[C@@H]3CCN(C(=O)c4ccccc4-n4nccn4)C[C@@H]32)nn1` [Example A12, methyl 6-((3aR, 7aR)-6-(2-(2H-1,2,3-triazol-2-yl)benzoyl)octahydro-1H-pyrrolo[2,3-c]pyridin-1-yl)pyridazine-3-carboxylate] were, in that order, at least 10 µM and at least 10000 nM.
The like results for `O=C(c1ccccc1-n1nccn1)N1CC[C@H]2CCN(c3ncnc4scnc34)[C@H]2C1` [Example A13, (2-(2H-1,2,3-triazol-2-yl)phenyl)((3aR, 7aR)-1-(thiazolo[5,4-d]pyrimidin-7-yl)hexahydro-1H-pyrrolo[2,3-c]pyridin-6(2H)-yl)methanone] were, in that order, at least 10 µM and at least 10000 nM.
Regarding `N#Cc1cc(Cl)ncc1N1CC[C@@H]2CCN(C(=O)c3ccccc3-n3nccn3)C[C@@H]21` [Example A14, 5-((3aR, 7aR)-6-(2-(2H-1,2,3-triazol-2-yl)benzoyl)octahydro-1H-pyrrolo[2,3-c]pyridin-1-yl)-2-chloroisonicotinonitrile], the 50% inhibitory concentration (IC50) was at least 10 µM on hOX1R and at least 10000 nM on human orexin-2 receptor.
In the same order, the values of `Cc1c(C#N)ccnc1N1CC[C@@H]2CCN(C(=O)c3ccccc3-n3nccn3)C[C@@H]21` [Example A15, 2-(cis-6-(2-(2H-1,2,3-triazol-2-yl)benzoyl)ocathydro-1H-pyrrolo[2,3-c]pyridin-1-yl)-3-methylisonicotinonitrile] are at least 10 µM and 84.8 nM.
In the same order, the values of `CN(C)c1ccnc(N2CC[C@@H]3CCN(C(=O)c4ccccc4-n4nccn4)C[C@@H]32)c1C#N` [Example A17, 4-(dimethylamino)-2-[(3aR, 7aR)-6-{[2-(2H-1,2,3-triazol-2-yl)phenyl]carbonyl}octahydro-1H-pyrrolo[2,3-c]pyridin-1-yl]pyridine-3-carbonitrile] are at least 10 µM and 69.8 nM.
The like results for `CN(C)c1cc(Cl)nc(N2CC[C@@H]3CCN(C(=O)c4ccccc4-n4nccn4)C[C@@H]32)n1` [Example A18, 6-chloro-N,N-dimethyl-2-[(3aR, 7aR)-6-{[2-(2H-1,2,3-triazol-2-yl)phenyl]carbonyl}octahydro-1H-pyrrolo[2,3-c]pyridin-1-yl]pyrimidin-4-amine] were, in that order, 3.24 µM and 130 nM.
For `N#Cc1ccnc(N2CC[C@@H]3CCN(C(=O)c4ccccc4-n4nccn4)C[C@@H]32)c1Cl` [Example A19, 3-chloro-2-[(3aR, 7aR)-6-{[2-(2H-1,2,3-triazol-2-yl)phenyl]carbonyl}octahydro-1H-pyrrolo[2,3-c]pyridin-1-yl]pyridine-4-carbonitrile], the 50% inhibitory concentration (IC50) on hOX1R is at least 10 µM; at human orexin-2 receptor, 95.5 nM.
On to `O=C(c1ccccc1-n1nccn1)N1CC[C@H]2CCN(c3cc(C(F)(F)F)ccn3)[C@H]2C1` [Example A20, (3aR, 7aR)-6-{[2-(2H-1,2,3-triazol-2-yl)phenyl]carbonyl}-1-[4-(trifluoromethyl)pyridin-2-yl]octahydro-1H-pyrrolo[2,3-c]pyridine], for which the values for the IC50 at hOX1R and on human orexin-2 receptor were 3.96 µM and 66.5 nM, respectively.
